Test [1] concerns the target L-lactate dehydrogenase B chain (Homo sapiens) (UniProt P07195). Put plainly: Inhibition of human LDHB assessed as reduction in lactate production using pyruvate as substrate at 10 uM in presence of NADH by spectrophotometric analysis relative to control.
Test [2] addresses T1, L-lactate dehydrogenase A chain (Homo sapiens, UniProt P00338). Put plainly: Non-competitive inhibition of human LDHA assessed as reduction in lactate production using pyruvate as substrate in presence of NADH by Lineweaver-Burk plot analysis.
Test [3] concerns the target T1, L-lactate dehydrogenase A chain. Put plainly: Inhibition of human LDHA assessed as reduction in lactate production using pyruvate as substrate at 10 uM in presence of NADH by spectrophotometric analysis relative to control.

Sequence of L-lactate dehydrogenase B chain (Homo sapiens) (P07195 2-334 limits assumed): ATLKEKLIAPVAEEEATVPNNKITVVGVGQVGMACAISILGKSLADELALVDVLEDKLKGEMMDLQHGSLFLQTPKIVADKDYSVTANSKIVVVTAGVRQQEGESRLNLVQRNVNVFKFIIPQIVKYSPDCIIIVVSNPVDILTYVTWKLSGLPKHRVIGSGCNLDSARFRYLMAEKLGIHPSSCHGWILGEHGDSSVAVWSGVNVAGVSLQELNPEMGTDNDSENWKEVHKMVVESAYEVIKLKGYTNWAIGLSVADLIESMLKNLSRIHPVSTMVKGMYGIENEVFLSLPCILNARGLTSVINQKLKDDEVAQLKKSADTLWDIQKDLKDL

As to `C=C(C)[C@@H]1CCC(C)=C[C@H]1c1c(O)cc(CCCCC)cc1O` [CANNABIDIOL], in test [1], the inhibition was under 50%. Moreover, in test [2], the Ki was found to be 24 µM.

Consider `CCCCCc1cc(O)c2c(c1)OC(C)(C)c1ccc(C)cc1-2`, for which, in test [1], the inhibition was under 50%.

Take `CCCCCc1cc(O)c2c(c1)OC(C)(C)[C@@H]1CCC(C)=C[C@@H]21` [DRONABINOL]: the inhibition in test [1] was under 50%. In test [2], the Ki amounted to 14 µM.

On to `CCCCCc1cc2c(c(O)c1C(=O)O)C=CC(C)(CCC=C(C)C)O2` (centres undefined), for which the inhibition in test [1] is under 50%.

For the molecule `CCCc1cc2c(c(O)c1C(=O)O)C=CC(C)(CCC=C(C)C)O2` (centres undefined), the inhibition in test [1] is under 50%.

For the molecule `CCCCCc1cc(O)c(C/C=C(\C)CCC=C(C)C)c(O)c1`, the inhibition in test [1] was under 50%.

For `CCCc1cc(O)c(C/C=C(\C)CCC=C(C)C)c(O)c1C(=O)O`, in test [1], the inhibition is under 50%.

Take `CC(C)=CCC/C(C)=C/Cc1c(O)cc(C)cc1O`: the inhibition in test [1] was under 50%.

`C=C(C)[C@@H]1CCC(C)=C[C@H]1c1c(O)cc(CCC)c(C(=O)O)c1O`: the inhibition in test [1] was under 50%.

For the molecule `CCCCCc1cc2c(c(O)c1C(=O)O)-c1cc(C)ccc1C(C)(C)O2`, in test [1], the inhibition was under 50%.

In the case of `CCCCCc1cc(O)c2c(c1)OC(C)(CCC=C(C)C)C=C2` (centres undefined) [CANNABICHROMENE], the inhibition in test [3] is over 50%; in test [1] it was under 50%. In addition, the Ki in test [2] was 8.5 µM.

On to `C=C(C)[C@@H]1CCC(C)=C[C@H]1c1c(O)cc(CCC)cc1O`, for which the inhibition in test [1] was under 50%.

Regarding `C=C(C)[C@@H]1CCC(C)=C[C@H]1c1c(O)cc(CCCCC)c(C(=O)O)c1O`, in test [1], the inhibition is under 50%.

As to `CCCc1cc2c(c(O)c1C(=O)O)[C@@H]1C=C(C)CC[C@H]1C(C)(C)O2`, the inhibition in test [1] is under 50%.

As for `CCCc1cc(O)c(C/C=C(\C)CCC=C(C)C)c(O)c1`, the inhibition in test [1] was under 50%.

Take `CCCc1cc(O)c2c(c1)OC(C)(C)[C@@H]1CCC(C)=C[C@@H]21`: the inhibition in test [1] was under 50%.

Consider `CCCCCc1cc(O)c(C/C=C(\C)CCC=C(C)C)c(O)c1C(=O)O`, for which the inhibition in test [1] is under 50%.

Regarding `CCCCCc1cc2c(c(O)c1C(=O)O)[C@@H]1C=C(C)CC[C@H]1C(C)(C)O2` [DELTA9-TETRAHYDROCANNABINOLIC ACID A], the inhibition in test [3] is over 50%; in test [1], under 50%. Moreover, in test [2], the Ki came out at 6.5 µM.

By inhibition is commonly meant the relative decrease from the control value, in per cent. As a reminder, the Ki is a dissociation constant, usually derived from enzyme kinetics or from competition with a known ligand.

The record behind these values is ChEMBL document CHEMBL4842310, “Cannabichromene and Δ9-Tetrahydrocannabinolic Acid Identified as Lactate Dehydrogenase-A Inhibitors by in Silico and in Vitro Screening” (J Nat Prod, 2021).
